Consider 13 molecules from ChEMBL document CHEMBL5260795, “Antifungal potential of marine natural products” (Eur J Med Chem, 2017).

For orientation: MIC means the smallest concentration in the dilution series that meets the test's criterion for growth inhibition. As a reminder, the IC50 is the concentration needed to halve the response being measured.

In test [1] the test system is Alternaria brassicae. The test is described as follows: Antifungal activity against Alternaria brassicae assessed as inhibition of fungal growth. Type of test: functional.
For test [2], the system named is Lindra thalassiae. Nature of the test: Antifungal activity against Lindra thalassiae assessed as lethal dose. The class given is functional. The settings on record: Lindriella thalassiae; read-out: LD50 (the source's name).
Test [3] concerns Nannizzia gypsea. Nature of the test: Antifungal activity against Microsporum gypseum ATCC31388. The class given is functional.
In test [4] the test system is Candida tropicalis. Nature of the test: Antifungal activity against Candida tropicalis assessed as fungal growth inhibition. The class given is functional.
Test [5] has as its system Pichia kudriavzevii. Nature of the test: Antifungal activity against fluconazole-resistant Candida krusei by CLSI protocol based macrobroth dilution method. Type of test: functional. (In general: Dilution methods test growth across graded concentrations, often in twofold steps.)
The subject of test [6] is Nakaseomyces glabratus. The test is described as follows: Antifungal activity against fluconazole-resistant Candida glabrata by CLSI protocol based macrobroth dilution method. The class given is functional.
Test [7] concerns Saprolegnia parasitica. The test is described as follows: Antifungal activity against Saprolegnia parasitica IFO8978 assessed as inhibition of fungal growth. Type of test: functional.
Test [8] concerns Globisporangium ultimum. Nature of the test: Antifungal activity against Pythium ultimum IFO32210 assessed as inhibition of fungal growth. The class given is functional.
Test [9] relates to Botrytis cinerea. Nature of the test: Antifungal activity against Botrytis cinerea AJ 117140 assessed as inhibition of fungal growth. Type of test: functional.
In test [10] the test system is Candida albicans. The test is described as follows: Antifungal activity against Candida albicans ATCC 24433. Type of test: functional.
The subject of test [11] is Ogataea angusta. Nature of the test: Antifungal activity against Pichia angusta measured after 3 to 4 days by agar plate diffusion method. The class given is functional. The settings on record: time 3-4 day.
For test [12], the system named is Rhagastis acuta. The test is described as follows: Antifungal activity against Rhagastis acuta measured after 3 to 4 days by agar plate diffusion method. Type of test: functional. The note with it: time 3-4 day.
Test [13] concerns Cryptococcus neoformans. The test is described as follows: Antifungal activity against Cryptococcus neoformans measured after 3 to 4 days by agar plate diffusion method. The note with it: time 3-4 day. Type of test: functional.
The test system of test [14] is Candida albicans. Nature of the test: Antifungal activity against Candida albicans measured after 3 to 4 days by agar plate diffusion method. The note with it: time 3-4 day. Type of test: functional.
For test [15], the system named is Botrytis fabae. Nature of the test: Antifungal activity against Botrytis fabae measured after 3 to 4 days by agar plate diffusion method. Type of test: functional. The note with it: time 3-4 day.
The test system of test [16] is Aspergillus niger. Nature of the test: Antifungal activity against Aspergillus niger measured after 3 to 4 days by agar plate diffusion method. Type of test: functional. The note with it: time 3-4 day.
In test [17] the test system is Pyricularia oryzae. Nature of the test: Antifungal activity against Pyricularia oryzae. The class given is functional.
Test [18] concerns Alternaria solani. Nature of the test: Antifungal activity against Alternaria solani. The class given is functional.
For test [19], the system named is Saccharomyces cerevisiae. Nature of the test: Antimicrobial activity against Saccharomyces cerevisiae. The class given is functional.
The subject of test [20] is Rhodotorula glutinis. Nature of the test: Antimicrobial activity against Rhodotorula glutinis. Type of test: functional.
The test system of test [21] is Candida albicans. The test is described as follows: Antimicrobial activity against Candida albicans. Type of test: functional.
The nature of test [22]: Inhibition of Candida albicans CaCdr1p transporter ATPase activity.
A short description of test [23]: Inhibition of Candida albicans CaCdr1p transporter assessed as reduction in rhodamine 6G efflux.
Test [24] relates to Pyricularia oryzae. Nature of the test: Antifungal activity against Pyricularia oryzae assessed as inhibition of fungal growth. The class given is functional.
Test [25] concerns Aspergillus fumigatus. The test is described as follows: Antimicrobial activity against Aspergillus fumigatus. Type of test: functional.
The subject of test [26] is Aspergillus flavus. Nature of the test: Antifungal activity against Aspergillus flavus assessed as inhibition of fungal growth. The class given is functional, organism-based.

In brackets after ≈: the same amount, converted by molar mass.

For `COc1ccc2c(c1OC)O[C@]1(C(=O)N3O[C@@H]4C(=CC=C[C@H]4O)C[C@@]3(SC)C(=O)N1C)[C@@H]2SC`, the minimal inhibitory concentration (MIC) in test [1] stood at 4 µg/mL (≈ 7.9 µM).

For `CC(C)CC(=O)C[C@@H](C)[C@H]1CC[C@@]2(C)[C@H]3CC[C@H]4[C@](CO)(COS(=O)(=O)[O-])C(=O)CC[C@@]45C[C@@]35CC[C@]12C.[Na+]`, the LC50 in test [2] turned out to be 0.94 µg/mL.

As for `C=C(C)CCC[C@@]1(C)OC(=O)[C@]23CC=C4C(=CC[C@H]5C(C)(C)[C@@H](O[C@@H]6OC[C@@H](O[C@@H]7O[C@H](CO)[C@@H](O)[C@H](O[C@@H]8O[C@H](CO)[C@@H](O)[C@H](O)[C@H]8O)[C@H]7O)[C@H](O)[C@H]6O[C@@H]6O[C@H](CO)[C@@H](O[C@@H]7OC[C@@H](O)[C@H](O[C@@H]8O[C@H](CO)[C@@H](O)[C@H](OC)[C@H]8O)[C@H]7O)[C@H](O)[C@H]6O)CC[C@]45C)[C@@]2(C)CC(=O)[C@@H]13`, the MIC in test [3] and in test [4] was 1.4 µM (≈ 1.95 µg/mL) in each case.

Regarding `COc1cc(/C=N/O)nc(-c2ccccn2)c1` [CAERULOMYCIN A], the MIC in test [5] and in [6] was 0.39 µg/mL (≈ 1.7 µM) in each case.

For `C=CC1OC1(C)CC(C)/C(C)=C/C=C(C)\C=C(OC)\C(=C/C(=O)OC)OC` (stereo unspecified), the minimum inhibitory concentration (MIC) in test [7] came to 0.1 µg/mL (≈ 0.266 µM); in test [8], 0.4 µg/mL (≈ 1.06 µM); in test [9], 3.1 µg/mL (≈ 8.23 µM).

In [10], `CC(C)C[C@@H](C)[C@@H](O)[C@@H](C)C(=O)N[C@H](C)C(=O)N[C@@H](CCCNC(=N)N)[C@@H](O)[C@@H](O)C(=O)N[C@@H](C(=O)N[C@@H](C(=O)O)[C@@H](C)O)[C@@H](C)CC(N)=O` showed an MIC of 0.07 µg/mL (≈ 0.0974 µM).

For the molecule `CC[C@@H](CC(=O)C(Cl)Cl)[C@H](C)c1ccc([N+](=O)[O-])cc1`, the minimum inhibitory concentration (MIC) in test [11], in test [12], in test [13], in [14], in test [15] and in test [16] was 0.1 µg/mL (≈ 0.314 µM) in each case.

In the case of `CC1CC[C@@H](O)/C=C/CC[C@H](O)C[C@@H](O)C/C=C\C=C\[C@@H](O)C/C=C/C=C\C(=O)O1` (stereo partly specified), the minimum inhibitory concentration (MIC) in test [17] and in [18] was 0.8 µg/mL (≈ 1.9 µM) each time.

As to `CO[C@H]1C(=O)N[C@]2(O)CC(=O)N(C)CC(=O)N[C@H](Cc3c[nH]c4cc(Cl)ccc34)C(=O)NCC(=O)NC[C@H](O)CC(=O)N[C@H]([C@@H](O)[C@@H](O)C/C=C/C=C/c3ccccc3)[C@@H](O)C(=O)N[C@@H]12`, the minimum inhibitory concentration (MIC) came out at 1.6 µg/mL (≈ 1.73 µM) in [19], 0.6 µg/mL (≈ 0.648 µM) in [20] and 3.1 µg/mL (≈ 3.35 µM) in test [21].

For `CCCCC[C@@H]1CC(=O)N[C@@H](CC(C)C)C(=O)N[C@H](Cc2ccccc2)C(=O)N[C@@H](CC(C)C)C(=O)N[C@@H](Cc2ccccc2)C(=O)O1`, the values for the half-inhibitory concentration (IC50) in test [22] and in [23] were 0.46 µg/mL (≈ 0.694 µM) and 3.74 µg/mL (≈ 5.64 µM), respectively.

On to `CC(C)=CCn1cc(CC2NC(=O)C(C(C)C)NC2=O)c2ccccc21` (stereo unspecified), for which the MIC in test [24] worked out at 0.127 µg/mL (≈ 0.359 µM).

Turning to `COc1ccc(/C=C/CCCC[C@H](C)[C@H](O)[C@@H](O)[C@H]2NC(=O)C[C@@H](O)CNC(=O)CNC(=O)[C@@H](Cc3c(C(=O)O)[nH]c4ccccc34)NC(=O)CN(C)C(=O)C[C@H]3NC(=O)C[C@H]3NC(=O)[C@H]2O)cc1`, in test [25], the MIC stood at 0.6 µg/mL (≈ 0.623 µM).

As for `CC[C@H](C)/C=C(C)/C=C/C1=CC2=C(Cl)C(=O)[C@@](C)(OC(C)=O)C(=O)C2=CO1`, in test [26], the half-maximal inhibitory concentration (IC50) worked out at 3.39 µg/mL (≈ 8.67 µM).
